These results are taken from patent publication US6528517B1, “Synthesis of quinobenzoxazine analogues with topoisomerase II and quadruplex interactions for use as antineoplastic agents” (Board of Regents, The University of Texas System, priority 1998, dated 2003).

One test has as its system B16 melanoma. Put plainly: Cancer cell growth inhibition assay (MTT). As to conditions: Mus musculus, B16. The class given is cell-based, murine. The method, then: (§1) Exponentially growing cells in 0.1 ml medium were seeded on Day 0 in 96-well microtiter plates. On Day 1, 0.1-ml aliquots of medium containing graded concentrations test agent were added in duplicate to the cell plates. After incubation at 37° C. in a humidified incubator, the plates were centrifuged briefly (1-2 min at 1000 rpm), and 100 μl of the growth medium was removed. Cell cultures were incubated with 50 μl of 3-(4,5-dimethylthiazyl-2-yl)-2,5-diphenyltetrazolium bromide MTT, 1 mg/ml in Dubecco's PBS for 4 h at 37° C. The resulting purple formazan precipitate was solubilized with 200 μl of 0.4 N HCl in isopropyl alcohol. Absorbance was quantitated using a Bio-Rad Model 3550 microplate reader at a test wavelength of 570 nm and a reference wavelength of 630 nm. Absorbance values were transferred to a 486 personal computer, and the IC50 values were determined using the computer program EZ-ED50 (Chen et al., 1993).

The next test relates to Raji lymphoma. Put plainly: Cancer cell growth inhibition assay (MTT). It counts as cell-based, human. The following applies: Homo sapiens, Raji. On the procedure: as §1
For a further test, the system named is H226 non-small-cell lung. Put plainly: Cancer cell growth inhibition assay (MTT). It counts as cell-based, human. As to conditions: Homo sapiens, NCI-H226. The method, then:
as §1

Another test relates to MDA-231 breast. Put plainly: Cancer cell growth inhibition assay (MTT). It counts as cell-based, human. The following applies: Homo sapiens, MDA-MB-231. On the procedure: as §1
The test system of a further test is HT-29 colon. Put plainly: Cancer cell growth inhibition assay (MTT). The class given is cell-based, human. The following applies: Homo sapiens, HT-29. On the procedure: as §1
The test system of the next test is DU-145 prostate. Put plainly: Cancer cell growth inhibition assay (MTT). The following applies: Homo sapiens, DU-145. It counts as cell-based, human. On the procedure: as §1
For another test, the system named is supercoiled pHOT1 DNA. Put plainly: DNA unwinding assay. The class given is biochemical. As to conditions: concentration shifting topoisomers to the middle position between relaxed and supercoiled bands. On the procedure:
A 22 μl mixture of 0.25 μg of supercoiled pHOT1 DNA, 5 units of topoisomerase I in topoisomerase I buffer (provided with the kit) was incubated at 37° C. for 30 min. Two μl of various concentrations of drug was added, and the incubation was continued for another 30 min. The reactions were terminated by addition of SDS to 1%. Proteinase K was added to the reaction mixtures to ca. 50 μg/ml, and the reaction mixtures were incubated for 15-20 min at 56° C. After adding 0.1 volume of 10×gel loading buffer, the reaction mixtures were extracted with an equal volume of CIA (Chloroform:isoamyl Alcohol; 24:1). The samples were loaded on an 1% agarous gel that was cast in TPE buffer (36 mM Tris-HCl, pH 7.8, 1 mM EDTA, 30 mM NaH2PO4) and 0.2 μg/ml Chloroquine. The gel was run in TPE buffer at room temperature at 10 volts for 20 h, destained in water for 15 min, stained in 0.05 μg/ml ethidium bromide for 15 min, and destained again in water for 15 min. The gel was then photographed, scanned by FluoroImager, and analyzed by ImageQuaNT software (Molecular Dynamics).

Another test has as its target T1, human topoisomerase II (Homo sapiens, UniProt P11388).
T1 construct: purchased TopoGEN, Inc
Put plainly: Decatenation assay (catenated to decatenated KDNA). The class given is biochemical. The following applies: drug concentration that inhibits 50% of conversion of catenated to decatenated KDNA; read-out: topoisomerase II inhibition IC50. On the procedure:
Kinetoplast DNA (KDNA), human topoisomerase II (170 KDa form), and DNA Unwinding Kit including supercoiled pHOT1 DNA, relaxed DNA marker, buffers, and human topoisomerase I were purchased from TopoGEN, Inc. Agarose was purchased from Fisher. Quinobenzoxazine A-62176 (S-enantiomer) was provided by Abbott Laboratories or prepared by published procedure (Chu and Maleczka, Jr., 1987).
0.25 μg of KDNA was incubated with various concentrations of the quinobenzoxazines in a 20-μl reaction mixture containing 50 mM Tris-HCl (pH 8), 120 mM KCl, 10 mM MgCl2, and 0.5 mM each of ATP, dithiothreitol, and […] BSA for 10 min. Two units of human topoisomerase II (170 KDa form) were added to the mixture, which was then incubated at 37° C. for 30 min. The reaction was terminated with 0.1 volume of stop buffer (5% sarkosyl, 0.025% bromophenol blue, and 50% glycerol). The decatenation products were analyzed on 1% agarose gels run with 0.5 μg/ml ethidium bromide. The gels were scanned by FluoroImager and analyzed by ImageQuaNT software (Molecular Dynamics).

T1 sequence (P11388 whole entry): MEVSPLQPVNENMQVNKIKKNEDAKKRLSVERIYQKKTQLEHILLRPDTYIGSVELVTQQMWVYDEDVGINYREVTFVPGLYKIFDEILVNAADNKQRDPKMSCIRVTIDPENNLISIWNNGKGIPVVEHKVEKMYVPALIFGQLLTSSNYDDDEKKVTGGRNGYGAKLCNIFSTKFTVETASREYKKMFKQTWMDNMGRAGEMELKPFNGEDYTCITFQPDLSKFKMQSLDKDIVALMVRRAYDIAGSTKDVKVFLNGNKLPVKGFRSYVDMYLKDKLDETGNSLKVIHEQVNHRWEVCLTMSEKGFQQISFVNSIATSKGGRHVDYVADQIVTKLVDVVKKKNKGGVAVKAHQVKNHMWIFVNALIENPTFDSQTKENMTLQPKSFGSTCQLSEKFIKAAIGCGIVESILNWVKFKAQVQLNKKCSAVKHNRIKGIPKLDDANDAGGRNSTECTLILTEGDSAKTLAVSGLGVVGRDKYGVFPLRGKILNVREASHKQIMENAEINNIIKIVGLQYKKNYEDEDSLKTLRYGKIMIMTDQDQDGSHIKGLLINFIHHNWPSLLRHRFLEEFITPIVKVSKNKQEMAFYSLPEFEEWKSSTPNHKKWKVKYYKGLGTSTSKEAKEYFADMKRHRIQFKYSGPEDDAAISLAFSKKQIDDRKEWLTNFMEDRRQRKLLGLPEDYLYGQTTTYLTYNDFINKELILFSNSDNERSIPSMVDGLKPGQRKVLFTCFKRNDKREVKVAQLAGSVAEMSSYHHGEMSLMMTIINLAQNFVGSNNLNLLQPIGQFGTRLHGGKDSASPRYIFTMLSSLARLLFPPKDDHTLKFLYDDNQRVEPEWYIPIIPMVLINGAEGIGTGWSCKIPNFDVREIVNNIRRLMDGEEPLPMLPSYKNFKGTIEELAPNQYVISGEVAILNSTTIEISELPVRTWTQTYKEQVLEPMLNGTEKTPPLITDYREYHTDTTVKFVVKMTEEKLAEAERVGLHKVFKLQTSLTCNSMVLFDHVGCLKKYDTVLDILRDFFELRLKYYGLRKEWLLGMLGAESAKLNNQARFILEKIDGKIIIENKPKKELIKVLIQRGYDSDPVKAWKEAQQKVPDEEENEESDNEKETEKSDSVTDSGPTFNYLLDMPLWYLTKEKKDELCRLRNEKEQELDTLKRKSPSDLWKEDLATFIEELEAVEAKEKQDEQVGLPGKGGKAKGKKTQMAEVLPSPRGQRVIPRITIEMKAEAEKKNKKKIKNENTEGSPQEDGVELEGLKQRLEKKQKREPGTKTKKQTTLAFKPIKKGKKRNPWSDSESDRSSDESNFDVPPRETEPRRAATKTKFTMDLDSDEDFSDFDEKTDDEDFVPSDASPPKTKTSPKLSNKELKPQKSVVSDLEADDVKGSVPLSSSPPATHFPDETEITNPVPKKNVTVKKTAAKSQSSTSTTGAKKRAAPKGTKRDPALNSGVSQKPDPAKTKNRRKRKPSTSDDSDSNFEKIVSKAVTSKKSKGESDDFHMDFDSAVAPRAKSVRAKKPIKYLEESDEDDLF

Turning to `N[C@H]1CCN(c2c(F)cc3c(=O)c(C(=O)O)cn4c3c2Oc2ccccc2-4)C1` [Compound A-62176, 1-(3-aminopyrrolidin-1-yl)-2-fluoro-4-oxo-4H-quino[2,3,4-i,j][1,4]benzoxazine-5-carboxylic acid, reference compound], the IC50 (as a rule, the concentration that inhibits the measured activity by half) with B16 melanoma came to 170 ± 10 nM; in the test with Raji lymphoma, 50 ± 6 nM; in the test on H226 non-small-cell lung, 90 ± 3 nM; in the test on MDA-231 breast, 160 ± 20 nM; with HT-29 colon, 160 ± 10 nM; in the test with DU-145 prostate it was 160 ± 30 nM. In addition, on human topoisomerase II, the half-maximal inhibitory concentration (IC50) was found to be 510 nM. In addition, the DNA unwinding concn in the test with supercoiled pHOT1 DNA was 50 µM.
